# Test results reported in US20090221624A1, “4-AMINOQUINOLINE COMPOUNDS FOR TREATING VIRUS-RELATED CONDITIONS” (priority 2005, published 2009).
# What was measured:
# YFV (YF-hRuPac cells) = test: microbe, parasite or virus in culture; type: cell-based, yellow fever virus; settings: for inhibition at 25 µM / EC50: Yellow fever virus; for inhibition at 25 µM: 24 h, read-out: YFV Inh; for EC50: read-out: YFV EC50
# EBOV minigenome = test: microbe, parasite or virus in culture; type: cell-based, Ebola virus; settings: Zaire ebolavirus; for inhibition at 25 µM: 24 h, read-out: EBOV Inh; for EC50: read-out: EBOV EC50
# WNV (WN-hRuPac cells) = test: WNV antiviral activity, WN-hRuPac cells, Renilla luciferase; type: cell-based, West Nile virus; settings: for EC50 / inhibition at 25 µM: West Nile virus; for EC50: Secondary Data, WNV, read-out: WNV EC50; for inhibition at 25 µM: primary screening, 25 μM final concentration, 24 hours, percent inhibition of viral replication, read-out: WNV Inh; for WNV TI: therapeutic index CC50/EC50, WNV
# DNG (D2-hRuPac cells) = test: DNG antiviral activity, D2-hRuPac cells, Renilla luciferase; type: cell-based, Dengue fever virus; settings: Dengue virus, secondary screening
# SINV (SR19-F-luc cells) = test: SINV antiviral activity, SR19-F-luc cells, Firefly luciferase; type: cell-based; settings: Sindbis virus; for inhibition at 25 µM: primary screening, 25 μM final concentration, 24 hours, percent inhibition of viral replication, read-out: SINV Inh; for EC50: secondary screening, SR19-F-luc cells
# [1] = test system: HCV replicon (Clone A cells, Huh7, subgenomic hepatits C virus RNA); test: HCV Neo screening assay (HCV replicon, NPTII ELISA); type: cell-based, hepatitis C virus; settings: for EC50 / inhibition at 25 µM: Hepatitis C virus, Huh-7; for EC50: Secondary Data, HCV; for inhibition at 25 µM: primary screening, 25 μM final concentration, 24 hours, percent inhibition of viral replication, read-out: HCV Inh; for HCV TI: therapeutic index CC50/EC50, HCV
# RSV minigenome = test: RSV minigenome-dependent β-galactosidase expression assay (RSV β-Gal); type: cell-based, respiratory syncytial virus; settings: for EC50 / inhibition at 25 µM: human respiratory syncytial virus; for EC50: Secondary Data, RSV, read-out: RSV EC50; for inhibition at 25 µM: primary screening, 25 μM final concentration, 24 hours, percent inhibition of viral replication, read-out: RSV Inh; for RSV TI: therapeutic index CC50/EC50, RSV
Compound,inhibition at 25 µM (YFV (YF-hRuPac cells)),EC50 (YFV (YF-hRuPac cells)),inhibition at 25 µM (EBOV minigenome),EC50 (EBOV minigenome),EC50 (WNV (WN-hRuPac cells)),inhibition at 25 µM (WNV (WN-hRuPac cells)),WNV TI (WNV (WN-hRuPac cells)),EC50 (DNG (D2-hRuPac cells)),CC50 (in vitro; DNG CC50),CC50 (in vitro; EBOV CC50),CC50 (in vitro; RSV CC50),CC50 (in vitro; SINV CC50),CC50 (in vitro; WNV CC50),CC50 (in vitro; YFV CC50),inhibition at 25 µM (SINV (SR19-F-luc cells)),EC50 (SINV (SR19-F-luc cells)),inhibition at 25 µM [1],EC50 (RSV minigenome),inhibition at 25 µM (RSV minigenome),RSV TI (RSV minigenome),further results
COC(=O)c1ccc(Nc2cc(C)nc3ccc(Cl)cc23)cc1 [Compound 60],79.4%,34.6 µM,57.4%,75 µM,14.6 µM,68.3%,5.14,15.2 µM,≥ 75 µM,≥ 75 µM,≥ 75 µM,≥ 75 µM,≥ 75 µM,≥ 75 µM,45.8%,12 µM,71.3%,≥ 75 µM,38.1%,–,YFV TI (YFV (YF-hRuPac cells)): 2.17; CC50 (in vitro; HCV CC50): 45.5 µM; EC50 [1]: 1.4 µM; HCV TI [1]: 32.5
Cc1cc(C)c2nc(C)cc(Nc3ccc(Cl)c(Cl)c3)c2c1 [Compound 53],79.9%,6.47 µM,75.6%,75 µM,20.9 µM,91.9%,2.35,28.7 µM,49.1 µM,49.1 µM,49.1 µM,49.1 µM,49.1 µM,49.1 µM,88.1%,6.69 µM,150%,3.78 µM,100%,13,YFV TI (YFV (YF-hRuPac cells)): 7.6; CC50 (in vitro; HCV CC50): 8.3 µM; EC50 [1]: 4.78 µM; HCV TI [1]: 1.74
COC(=O)c1ccc(Nc2cc(C)nc3c(C)cccc23)cc1 [Compound 61],97.7%,10.1 µM,40.9%,70.6 µM,22.3 µM,96.9%,2.06,14.1 µM,45.9 µM,45.9 µM,45.9 µM,45.9 µM,45.9 µM,45.9 µM,37.5%,17.3 µM,80.1%,32.1 µM,58.7%,1.43,YFV TI (YFV (YF-hRuPac cells)): 4.54; CC50 (in vitro; HCV CC50): 46.5 µM; EC50 [1]: 0.75 µM; HCV TI [1]: 61.93
Cc1cc(Nc2cccc(C(F)(F)F)c2)c2cc(Cl)ccc2n1 [Compound 40],79.6%,6.45 µM,26.3%,75 µM,8.39 µM,65.6%,7.15,40.6 µM,60 µM,60 µM,60 µM,60 µM,60 µM,60 µM,69.5%,14.4 µM,96.1%,2.43 µM,99.3%,24.68,YFV TI (YFV (YF-hRuPac cells)): 9.3; CC50 (in vitro; HCV CC50): 5.53 µM; EC50 [1]: 5.55 µM; HCV TI [1]: 1
CCCOC(=O)c1ccc(Nc2cc(C)nc3ccc(C(=O)OCC)cc23)cc1 [Compound 63],54.2%,51.8 µM,92%,9.03 µM,44.1 µM,55%,1.59,44.8 µM,70.1 µM,70.1 µM,70.1 µM,70.1 µM,70.1 µM,70.1 µM,53.3%,≥ 75 µM,57.2%,72.2 µM,56.4%,0.97,YFV TI (YFV (YF-hRuPac cells)): 1.35
c1ccc2cc(Nc3c4ccccc4nc4ccccc34)ccc2c1 [Compound 1],77.5%,6.34 µM,39.8%,35.8 µM,5.7 µM,65.4%,8.34,7.17 µM,47.6 µM,47.6 µM,47.6 µM,47.6 µM,47.6 µM,47.6 µM,34.1%,28.1 µM,177%,1.89 µM,99.9%,25.16,YFV TI (YFV (YF-hRuPac cells)): 7.5; CC50 (in vitro; HCV CC50): 3.83 µM; EC50 [1]: 6.52 µM; HCV TI [1]: 0.59
Cc1ccc2nc(C)cc(NCc3ccco3)c2c1 [Compound 23],86.3%,6.48 µM,-1.14%,75 µM,3.76 µM,70.3%,15.41,25.8 µM,57.9 µM,57.9 µM,57.9 µM,57.9 µM,57.9 µM,57.9 µM,22.8%,≥ 75 µM,13.7%,2.91 µM,92%,19.91,YFV TI (YFV (YF-hRuPac cells)): 8.94; CC50 (in vitro; HCV CC50): ≥ 75 µM
CCOC(=O)c1cnc2ccc(F)cc2c1NCCCN(C)C [Compound 66],11.4%,≥ 75 µM,84.1%,14.1 µM,22.9 µM,40.8%,2.82,51.4 µM,64.6 µM,64.6 µM,64.6 µM,64.6 µM,64.6 µM,64.6 µM,14.9%,9.53 µM,39.6%,44.8 µM,17.6%,1.44,YFV TI (YFV (YF-hRuPac cells)): 0.86
Cc1cc(Nc2cccc(Cl)c2C)c2cccc(C)c2n1 [Compound 65],76.3%,≥ 75 µM,81.8%,48.8 µM,5.72 µM,80.6%,13.11,≥ 75 µM,≥ 75 µM,≥ 75 µM,≥ 75 µM,≥ 75 µM,≥ 75 µM,≥ 75 µM,72.2%,≥ 75 µM,114%,1.95 µM,96.6%,38.46,CC50 (in vitro; HCV CC50): 13 µM; EC50 [1]: 8.48 µM; HCV TI [1]: 1.53
CCOC(=O)c1cnc2ccc(OCC)cc2c1Nc1ccc(I)cc1 [Compound 32],-16.9%,≥ 75 µM,31.9%,75 µM,≥ 75 µM,-2.69%,–,≥ 75 µM,≥ 75 µM,≥ 75 µM,≥ 75 µM,≥ 75 µM,≥ 75 µM,≥ 75 µM,-17.6%,≥ 75 µM,-11.1%,3.5 µM,48.3%,21.43,CC50 (in vitro; HCV CC50): ≥ 75 µM
CC(=O)c1cccc(Nc2cc(C)nc3c(C)cc(C)cc23)c1 [Compound 48],62.1%,15.9 µM,29.4%,26.4 µM,21.3 µM,58.5%,1.2,10.5 µM,25.6 µM,25.6 µM,25.6 µM,25.6 µM,25.6 µM,25.6 µM,70.3%,2.47 µM,151%,8.32 µM,78%,3.08,YFV TI (YFV (YF-hRuPac cells)): 1.61; CC50 (in vitro; HCV CC50): 14.1 µM; EC50 [1]: 10 µM; HCV TI [1]: 1.41
CCOC(=O)c1cnc2ccc(OCC)cc2c1NCc1ccco1 [Compound 36],94.4%,6.78 µM,15.5%,75 µM,2.38 µM,93.7%,19.87,16.5 µM,47.3 µM,47.3 µM,47.3 µM,47.3 µM,47.3 µM,47.3 µM,-58.8%,≥ 75 µM,135%,1.46 µM,100%,32.4,YFV TI (YFV (YF-hRuPac cells)): 6.98; CC50 (in vitro; HCV CC50): 21.3 µM; EC50 [1]: 6 µM; HCV TI [1]: 3.55
